These results are taken from patent publication US11407741B2, “Compounds and their use as selective inhibitors of caspase-2” (priority 2017, dated 2022).

By IC50 is commonly meant the concentration that inhibits the measured activity by half. One may read the Ki as a dissociation constant, usually derived from enzyme kinetics or from competition with a known ligand.

Test [1] addresses T1, Casp-2 (Homo sapiens, UniProt P42575).
T1 construct: the Caspase-2 and Caspase-3 are human recombinant active enzymes; purchased Enzo Life ALX-201-057-U100
T1 sequence (P42575 170-325 limits assumed): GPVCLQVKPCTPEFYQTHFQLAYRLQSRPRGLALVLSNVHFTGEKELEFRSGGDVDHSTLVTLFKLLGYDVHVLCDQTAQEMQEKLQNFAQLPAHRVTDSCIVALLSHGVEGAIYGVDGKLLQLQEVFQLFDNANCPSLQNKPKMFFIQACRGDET
T1 sequence (P42575 348-452 limits assumed): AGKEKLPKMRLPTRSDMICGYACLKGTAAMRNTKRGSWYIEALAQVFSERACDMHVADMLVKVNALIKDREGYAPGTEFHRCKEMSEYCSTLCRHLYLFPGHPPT
Nature of the test: Caspase-2 inhibition assay for reversible inhibitors (IC50, Ki, dilution method). The class given is biochemical. The note with it: for IC50: 30 minutes at 37° C. preincubation; for Ki: secondary plot of Lineweaver-Burk. The protocol: (§1) A preliminary step in the characterization of an inhibitor is the determination of its IC50. The IC50 is the necessary concentration of an inhibitor to decrease the enzyme activity by 50% of its maximum and uninhibited value.
(§2) The compound, at different concentrations, is incubated with the enzyme and buffer for 30 minutes at 37° C. to allow formation of the Enzyme-Inhibitor complex. The reaction is initiated by addition of buffer and substrate, and then activity is measured over 15 minutes for the determination of initial velocities.
(§3) The enzyme and the inhibitor (or DMSO as control) are incubated for 30 minutes at 37° C. The complex thus formed is diluted to 100th in the buffer/substrate mixture and then the activity measurement is started over 20 minutes. The initial rate obtained for the DMSO represents the 100% activity and will serve as a reference for the quantification of the residual activity of the enzyme in the presence of the inhibitor.
(§4) The reaction is started over 20 minutes upon addition of the buffer-substrate mixture.
(§5) Initial velocity values in RFU·min^−1 are reduced to Specific Activity (SA)values (pmol/min/μg enzyme) from an AMC standard range (1 RFU→0.02 pmol).
(§6) The evolution of the ratio 1/SA as a function of 1/[S] makes it possible to obtain the so-called double-inverse graph of Lineweaver-Burk from equation 4 (eq.4) where Vmaxapp and KMapp are the parameters which vary according to the type inhibition and as a function of inhibitor concentration. The intersection of the lines obtained for increasing inhibitor concentrations makes it possible to distinguish different types of inhibitors.
A secondary graph, obtained from the values of the slopes of the Lineweaver-Burk plot as a function of the concentration of inhibitor, makes it possible to obtain the value of the Ki. Its value is given by the abscissa point at the origin.
The initial velocity V0 is expressed from equation 8 (eq.8), where Vmax is the maximum reaction rate (reached when the enzyme is saturated with substrate), [S] the substrate concentration, KM is the Michaelis-Menten constant (substrate concentration corresponding to Vmax/2), Ki is the dissociation constant which accounts for the affinity of the inhibitor for the enzyme.

Test [2] has as its target T2, Caspase-2 (Homo sapiens, UniProt P42575).
T2 construct: the Caspase-2 and Caspase-3 are human recombinant active enzymes; purchased Enzo Life ALX-201-057-U100
T2 sequence (P42575 170-325 limits assumed): T1 sequence (P42575 170-325 limits assumed)
T2 sequence (P42575 348-452 limits assumed): T1 sequence (P42575 348-452 limits assumed)
Nature of the test: Caspase-2 inhibition assay for irreversible inhibitors (kinact/KI, continuous method). It is filed as biochemical. The protocol: The efficiency of the comparative compound Δ2Me-TRP601, that is an already known group II Caspase inhibitor (inhibitor of Caspase-2, Caspase-3 and Caspase-7), has been assessed by a similar protocol described in Chauvier et al., 2011 Cell Death Dis 2011, 2:e203.
In this example, the Caspase-2 and Caspase-3 are human recombinant active enzymes that are respectively provided by Enzo Life® (ALX-201-057-U100) and R&D Systems® (707-C3-010/CF).
Caspase-2 is used at a final concentration of 0.1 nM in a “Caspase-2 buffer” containing 20 mM HEPES (pH 7.4), 5 mM DTT, 2 mM EDTA, 0.1% CHAPS and 800 mM succinate. Caspase-3 is used at a final concentration of 0.5 nM in a “Caspase-3 buffer” containing 20 mM HEPES (pH 7.4), 0.1% CHAPS, 5 mM DTT, and 2 mM EDTA.
The peptide substrates used for the enzymatic activity measurements are Ac-DEVD-AMC and Ac-VDVAD-AMC commercialized by EnzoLife® (respectively referenced ALX-260-031-M005 and ALX-260-060-M005). They are fluorogenic due to the presence of their AMC (7-amino-4-methylcoumarin) end group. The releasing of AMC enables to follow the enzymatic activity in fluorescence unit RFU over time in a 96-wells microplate.
The fluorescence values are measured at 37° C. with a spectrofluorometer with a microplate reader BMG FLUOstar OPTIMA. This apparatus is driven by the software Biolise® and is equipped with thermoelectric cooling device by Peltier effect. The mathematical analyses of the experimental data are done with the software Kaleidagraph®.
The inhibitory properties of the tested compounds are evaluated by the determination of the kinact/KI ratio regarding either Caspase-2 or Caspase-3 wherein: • kinact is the maximal inactivation rate constant, and • KI is the dissociation constant according to:
Said ratio is measured according to the continuous method (Allison R D. Curr Protoc Protein Sci. 2001 May; Chapter 3:Unit 3.5.; Chauvier et al., 2011 Cell Death Dis 2:e203; Tan et al., J Med Chem 2015, […]).
Briefly, Caspases activities were determined by monitoring the hydrolysis of fluorogenic substrates (λexc=355 nm, λem=460 nm) as a function of time, in the presence of untreated Caspases (control) or Caspases that had been incubated with a test compound, for 30 min minimum at 37° C. using a BMG Fluostar microplate reader (black 96-well microplates) and the initial velocity (V0) was determined from the linear portion of the progress curve.
Substrates and compounds were previously dissolved in DMSO at 10 mM, with the final solvent concentration kept at lower 4% (v/v). V0, relative velocities, KM and IC50 were determined from experimental data using Mars data Analysis 2.0 and Kaleidagraph softwares.
Inhibitor binding affinity (dissociation constant, KI) and first-order rate constant (k3) parameters were determined for Caspase-2 and Caspase-3 using the progress curve method. The ratio k3/KI was obtained by fitting the experimental data to the equations (F.U., fluorescence unit): […]
A continuous method of determination of the kinact/KI ratio was used for evaluating the inhibitory activity of the tested compounds against Caspase-2 and Caspase-3.
The reaction mixture is prepared by letting the enzyme and the buffer incubate at 37° C.
The tested inhibitory compounds are prepared at different concentrations (¼ IC50; ½ IC50; IC50; 2 IC50; 4 IC50) and put in the microplate.
Then the reaction mixture comprising the enzyme, the buffer and the substrate is rapidly added in the wells.
The activities of the enzyme are measured between 45 and 60 minutes.
The RFU (Relative Fluorescence Units)=f(times) curves are traced for each concentration of tested molecule according to the following equation: ((((−V0)*(exp(−kobs*m0)))+V0)/kobs*)+RFU0
in which: • V0 corresponds to the initial rate (RFU·s^−1) in the concentration of 0 of the tested inhibitory compound; • kobs is the inactivation rate constant; • RFU0 is the fluorescence value at t=0 min; and • m0 is the variable i.e. the inhibitor concentration.

For test [3], the target named is T3, Caspase-3 (Homo sapiens, UniProt P42574).
T3 construct: the Caspase-2 and Caspase-3 are human recombinant active enzymes; purchased R&D Systems 707-C3-010/CF
T3 sequence (P42574 29-175 limits assumed): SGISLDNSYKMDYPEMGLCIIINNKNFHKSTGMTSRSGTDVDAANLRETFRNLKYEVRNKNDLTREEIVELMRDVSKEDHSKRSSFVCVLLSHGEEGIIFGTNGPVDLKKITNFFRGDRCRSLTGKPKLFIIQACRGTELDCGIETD
T3 sequence (P42574 176-277 limits assumed): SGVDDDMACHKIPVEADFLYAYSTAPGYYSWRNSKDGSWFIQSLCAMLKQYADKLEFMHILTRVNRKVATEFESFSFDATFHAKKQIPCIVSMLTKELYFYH
Nature of the test: Caspase-3 inhibition assay for reversible inhibitors (IC50, Ki). It is filed as biochemical. The protocol:
as §1, §2, §3, §4, §5, §6
A secondary graph, obtained from the values of the slopes of the Lineweaver-Burk plot as a function of the concentration of inhibitor, makes it possible to obtain the value of the Ki. Its value is given by the abscissa point at the origin. […]

Test [4] concerns hippocampal neurons intoxicated with Aβ1-42 oligomers. Nature of the test: Protection against Abeta neurotoxicity in primary hippocampal neurons in microfluidic chambers. The class given is cell-based, mice. The settings on record: Aβ intoxicated cells not pretreated, 6 h of intoxication, vs non-intoxicated. The text has this: Hippocampus are micro-dissected from E16 embryos of C57B16/J wt mice (Rene Janvier, France) in cold Gey's Balanced Salt Solution (GBSS, Sigma) supplemented with 0.1% glucose (Life technologies).
Dissected structures are digested with papain (20 U/ML in DMEM, Sigma; St. Louis, Mo., USA) and mechanically dissociated in the presence of DNAse. Hippocampal cells are then rinsed and re-suspended in DMEM (Life Technologies, Inc., Gaithersburg, Md., USA) to a final density of 18 million cells/ml in Neurobasal (Life technologies) and Glutamax (0.1% LifeTechnologies) supplemented with B27 (1/50) and penicilline/sptreptomycine 1% (Gibco).
This cell suspension is then used to fill the reservoirs of microfluidic chambers, as described (Peyrin et al, 2011 Lab Chips 11(21):3663; Deleglise et al, 2014 Acta Neuropathologica Comm. 2: 145). Microfluidic chips are placed in plastic Petri dishes containing H20-EDTA to prevent evaporation and incubated at 37° C. in a humid 5% CO2 atmosphere. The culture medium is renewed every seven days.
Oligomeric form of Aβ1-42 (Tocris Bioscience, MN, USA), is produced according to Stine W B et al (2003) in J Biol Chem 278, pp 11612-11622 and can be controlled by electron microscopy as in Deleglise B et al. in Acta Neuropathol Commun. 2014; 2: 145).
Briefly, Aβ1-42 lyophilized peptides are solubilized at 1 mM in 1, 1, 1, 3, 3, 3,-hexafluoro-2-propanol (HFIP, Sigma Aldrich). After 30 min of incubation at RT, HFIP is evaporated for 12 h under chemical hood and peptides are dried for 1 h (with a Speed Vac at 4° C.). Then, 5 mM Aβ peptide stock solutions are obtained by resolubilization at in dimethylsulfoxide (DMSO, Sigma Aldrich). To obtain oligomers, Aβ peptide stock solution is diluted in cold phenol free DMEM-F12 medium (Life Technologies) to a final concentration of 100 μM. The solution is then incubated 24 h at 4° C. Soluble Aβ oligomer fraction is collected from the supernatant after a centrifugation step at 20 000 g (10 min; 4° C.), and stored at −80° C. until use.
After 18 days of culture in micro fluidic chambers, hippocampal cells are pre-incubated for 1 h with compounds of the invention prior diluted in phenol free DMEM-F12 medium or in phenol free DMEM-F12 medium alone as a control solution. Cells are then intoxicated for 3 h to 6 h or 24 h with 10 or 100 nm of Aβ1-42 oligomers (or with phenol free DMEM-F12 medium alone as a control solution). After the intoxication step, cells are fixed in 4% paraformaldehyde (PFA, Sigma; St. Louis, Mo., USA) for 20 min RT, and labelled as explained below to evaluate synapses status, cell death or axonal degeneration.
Briefly, after the fixation step, cultures cells are washed twice with PBS+Azide 0.1% for 5 min and permeabilized for 10 min with 0.2% Triton X-100 and 0.1% BSA (Bovine Serum Albumin, Sigma) in PBS+Azide 0.1%. Saturation step is then realized by incubating cells during 30 min in PBS+Azide 0.1%+BSA1%. Primary antibodies are then added and the samples incubated at 4° C. overnight in PBS. Afterwards, samples are rinsed twice for 5 min with PBS+Azide 0.1% and further incubated with the corresponding secondary antibody together with phalloidin conjugated to Alexa Fluor 555 for 2 h RT. The chips were then rinsed twice with PBS+Azide 0.1%.
The following antibodies are used: rabbit polyclonal anti-MAP-2 (AB5622; 1/400, MILLIPORE), mouse monoclonal Anti-Bassoon SAP7F407; 1:400, Enzo LifeSciences). Species-specific secondary antibodies coupled to Alexa 350, 488 or 500 are used (1/500, Life Technologies, Inc., Gaithersburg, Md., USA). Phalloidin conjugated to Alexa Fluor 555 (1/500, EnzoLifeTechnologies) is used to stain F-actin.
Images are acquired with an Axio-observer Zl (Zeiss, Germany) fitted with a cooled CCD camera (CoolsnapHQ2, Ropert Scientific). The microscope is controlled with Metamorph and Micro-manager software. Images were analyzed using ImageJ software.

Where a SMILES comes first, the peptide text is derived from it.

In test [1], `CC(=O)N[C@@H](CC(=O)O)C(=O)N[C@@H](CCC(=O)O)C(=O)N[C@H](C(=O)N[C@H](C=O)CC(=O)O)C(C)C` [Ac-DEVD-CHO] showed a half-maximal inhibitory concentration (IC50) of 3910 ± 189 nM and a Ki of 3220 nM.
Consider `CC(C)[C@H](NC(=O)c1ccc2ccccc2n1)C(=O)N[C@@H](CC(=O)O)C(=O)N[C@H](C(=O)N1CC[C@H](CC(C)(C)C)[C@H]1C(=O)N[C@@H](CC(=O)O)C(=O)COc1c(F)cccc1F)C(C)C` (single isomer, unassigned) [Compound 2 enantiomer b], for which the “k3/KI Casp2” value in test [2] (human recombinant Caspase-2 0.1 nM, 37° C.) is recorded as 1 720 M^−1 · s^−1. In test [2] (ratio of k3/KI Casp2 to Casp3), the “Selectivity ratio (C2/C3) (symbol)” value is reported as “+++ (+++: as no inhibitory activity is detectable toward casp3, selectivity is very important (>>1000).)”.
Turning to `CC(=O)N[C@H](C(=O)N[C@@H](CC(=O)O)C(=O)N[C@H](C(=O)N[C@@H](C)C(=O)N[C@H](C=O)CC(=O)O)C(C)C)C(C)C` [Ac-VDVAD-CHO] (Ac-VDVAD-aldehyde), in test [1], the “Selectivity Indexes (KiCasp3/KiCasp2)” value was 1.3, the IC50 came out at 6.9 nM and affinity was put at a Ki of 6.31 nM. Also, the IC50 in test [3] (30 minutes at 37° C. preincubation) is 7.23 nM. For the same compound, in test [3] (secondary plot of Lineweaver-Burk), the Ki amounted to 7.68 nM.
As to “Aβ alone: Oligomeric form of Aβ1-42 (Tocris Bioscience) used to intoxicate neurons [reference compound]”, the “decrease in synapse number” value in test [4] is given as ~50%.
